This is an account of results in patent US20250263424A1, “KRAS INHIBITORS” (Bristol-Myers Squibb Company, priority 2022, published 2025).

Molecules are shown by their SMILES.

The experiment has as its target Recombinant GMPPNP-loaded KRAS G12C (KRAS-G12C(ON), active form) (Homo sapiens, UniProt P01116, G12C). The experiment can be described thus: KRAS G12C RAF Disruption Assay (HTRF). Type of experiment: biochemical. The settings on record: GMPPNP-loaded KRAS G12C 5 nM, GST-RAF1 RBD 9 nM, values given in μM, read-out: KRASG12C RAF Disruption Assay (IC50). Summed up:
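GMPPNP-loaded KRAS G12C (5 nM) preincubated with compound 20 min at room temperature in Tris pH 7.5 buffer with MgCl2, DTT and BSA. GST-RAF1 RBD (9 nM) then added for 20 min, and SA-Tb (0.25 nM) for 3 h. HTRF 520/495 ratio read; IC50 taken from the dose-response curve.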

Recombinant GMPPNP-loaded KRAS G12C (KRAS-G12C(ON), active form), sequence (P01116 1-188 isoform P01116-2 G12C): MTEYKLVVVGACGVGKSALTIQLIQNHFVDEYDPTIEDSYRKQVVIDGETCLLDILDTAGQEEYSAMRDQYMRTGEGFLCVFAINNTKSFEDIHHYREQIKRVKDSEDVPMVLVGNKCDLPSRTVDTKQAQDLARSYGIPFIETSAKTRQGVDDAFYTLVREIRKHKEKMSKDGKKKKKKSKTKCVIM

Take `Cc1cc(N)nc(-c2c(Cl)cc3c(N4[C@@H]5CC[C@H]4[C@H]4CN(C(=O)/C(F)=C/c6nccs6)C[C@H]45)nc(OC[C@]45CCCN4C[C@H](F)C5)nc3c2F)c1C(F)(F)F` (atropisomer, axis not shown; (aR)) [Example 17, (Z)-1-((3aR,4S,7R,7aS)-8-((7M)-7-(6-amino-4-methyl-3-(trifluoromethyl)pyridin-2-yl)-6-chloro-8-fluoro-2-(((2R,7aR)-2-fluorotetrahydro-1H-pyrrolizin-7a(5H)-yl)methoxy)quinazolin-4-yl)octahydro-2H-4,7-epiminoisoindol-2-yl)-2-fluoro-3-(thiazol-2-yl)prop-2-en-1-one]: the IC50 (in general, the concentration that gives 50% inhibition) amounted to 5.8 µM.
